These results are taken from patent US12110294B2, “CD73 compounds” (Gilead Sciences, Inc., priority 2020, dated 2024).

The experiment has as its target T1, CD73 activity in MDA-MB-231-GFP cells (Homo sapiens, UniProt P21589).
T1 construct: endogenous in cells; host or cells: MDA-MB-231-GFP cells
T1 sequence (P21589 27-549): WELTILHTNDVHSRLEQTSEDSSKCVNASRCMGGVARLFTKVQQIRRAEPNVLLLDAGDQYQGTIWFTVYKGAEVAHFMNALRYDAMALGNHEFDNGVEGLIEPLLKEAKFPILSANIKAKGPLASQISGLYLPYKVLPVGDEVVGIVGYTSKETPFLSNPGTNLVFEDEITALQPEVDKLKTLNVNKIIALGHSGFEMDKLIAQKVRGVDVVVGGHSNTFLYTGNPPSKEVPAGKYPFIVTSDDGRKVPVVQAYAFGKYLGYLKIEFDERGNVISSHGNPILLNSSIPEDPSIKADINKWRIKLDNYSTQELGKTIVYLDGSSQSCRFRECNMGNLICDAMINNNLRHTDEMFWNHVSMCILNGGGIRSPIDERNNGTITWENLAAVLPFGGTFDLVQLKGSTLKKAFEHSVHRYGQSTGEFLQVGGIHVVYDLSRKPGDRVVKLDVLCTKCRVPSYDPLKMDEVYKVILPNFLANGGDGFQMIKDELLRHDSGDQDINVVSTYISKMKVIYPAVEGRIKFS
In words: MDA-MB-231 Cell Based CD73 Activity Assay (DMEM). Particulars: 3000 cells per well, DMEM medium with 10% human plasma, overnight compound treatment, AMP 200 uM. The procedure:
MDA-MB-231 Cell Based CD73 Activity Assay (DMEM) MDA-MB-231-GFP cells were seeded in 384-well plates (Greiner 781946) at a density of 3000 cells per well in 50 μL of DMEM medium with 10% HP (human plasma). Cells were plated into assay plate with compounds pre-spotted, for an overnight compound treatment. 50 uL of 400 uM AMP (final concentration will be 200 uM) was added using Bio-tek dispenser. Plates were incubated for 100 mins. […] The samples were analyzed using Rapid fire.

As a reminder, the EC50 is the midpoint of the concentration-response curve. The low end stands for higher potency in that assay, the high end for lower potency in that assay. In turn, `O=c1[nH]cc(-c2cc([C@H]3C[C@@H]3c3ccc4c(F)nn(CC(F)(F)F)c4c3)c3nccn3n2)c(=O)[nH]1` (racemic) [Example 117, 5-(8-((2S,2S)-2-(3-fluoro-1-(2,2,2-trifluoroethyl)-1H-indazol-6-yl)cyclopropyl)imidazo[1,2-b]pyridazin-6-yl)pyrimidine-2,4(1H,3H)-dione] came in with a concentration for a half-maximal effect (EC50) of 0.14 nM.

Compound `O=c1[nH]cc(-c2cc([C@H]3C[C@@H]3c3ccc4cnn(CC5CC5(F)F)c4c3)c3nccn3n2)c(=O)[nH]1` (mixture of isomers) [Example 118, 5-(8-((2S,2S)-2-(1-((2,2-difluorocyclopropyl)methyl)-1H-indazol-6-yl)cyclopropyl)imidazo[1,2-b]pyridazin-6-yl)pyrimidine-2,4(1H,3H)-dione] yielded an EC50 of 0.1 nM. Next, `O=c1[nH]cc(-c2cc([C@H]3C[C@@H]3c3cc4c(ccn4CC(F)(F)F)cn3)c3nccn3n2)c(=O)[nH]1` (racemic) [Example 127, 5-(8-((2S,2S)-2-(1-(2,2,2-trifluoroethyl)-1H-pyrrolo[3,2-c]pyridin-6-yl)cyclopropyl)imidazo[1,2-b]pyridazin-6-yl)pyrimidine-2,4(1H,3H)-dione]: 0.17 nM. The value for `O=c1[nH]cc(-c2cc([C@H]3C[C@@H]3c3ccc4c(C5CC5)nn(CC(F)(F)F)c4c3)c3nccn3n2)c(=O)[nH]1` (racemic) [Example 128, 5-(8-((2S,2S)-2-(3-cyclopropyl-1-(2,2,2-trifluoroethyl)-1H-indazol-6-yl)cyclopropyl)imidazo[1,2-b]pyridazin-6-yl)pyrimidine-2,4(1H,3H)-dione] was 0.4 nM; that for `O=c1[nH]cc(-c2cc([C@H]3C[C@@H]3c3ccc4cnn(CC5CC5)c4c3)c3nccn3n2)c(=O)[nH]1` (racemic) [Example 130, 5-(8-((2S,2S)-2-(1-(cyclopropylmethyl)-1H-indazol-6-yl)cyclopropyl)imidazo[1,2-b]pyridazin-6-yl)pyrimidine-2,4(1H,3H)-dione] was 0.13 nM; that for `O=c1[nH]cc(-c2cc([C@H]3C[C@@H]3c3ccc4ncsc4c3)c3nc(C4CC4)cn3n2)c(=O)[nH]1` (racemic) [Example 143, 5-(8-((1S,2S)-2-(benzo[d]thiazol-6-yl)cyclopropyl)-2-cyclopropylimidazo[1,2-b]pyridazin-6-yl)pyrimidine-2,4(1H,3H)-dione] was 13.1 nM.

For `N#Cc1ccc([C@H]2C[C@@H]2c2cc(-c3c[nH]c(=O)[nH]c3=O)nn3c(F)cnc23)nc1` (racemic) [Example 151, 6-((1S,2S)-2-(6-(2,4-dioxo-1,2,3,4-tetrahydropyrimidin-5-yl)-3-fluoroimidazo[1,2-b]pyridazin-8-yl)cyclopropyl)nicotinonitrile], the EC50 worked out at 1.94 nM.

Compound `O=c1[nH]cc(-c2cc([C@H]3C[C@@H]3c3ccc4cccnc4c3)c3nccn3n2)c(=O)[nH]1` (racemic) [Example 154, 5-(8-((1S,2S)-2-(quinolin-7-yl)cyclopropyl)imidazo[1,2-b]pyridazin-6-yl)pyrimidine-2,4(1H,3H)-dione] gave an EC50 of 5.75 nM. Next, `N#Cc1ccc([C@H]2C[C@@H]2c2cc(-c3c[nH]c(=O)[nH]c3=O)nn3ccnc23)nc1` (racemic) [Example 155, 6-((1S,2S)-2-(6-(2,4-dioxo-1,2,3,4-tetrahydropyrimidin-5-yl)imidazo[1,2-b]pyridazin-8-yl)cyclopropyl)nicotinonitrile]: 5.42 nM; `O=c1[nH]cc(-c2cc([C@H]3C[C@@H]3c3ccc4cnccc4c3)c3nccn3n2)c(=O)[nH]1` (racemic) [Example 156, 5-(8-((1S,2S)-2-(isoquinolin-6-yl)cyclopropyl)imidazo[1,2-b]pyridazin-6-yl)pyrimidine-2,4(1H,3H)-dione]: 1.87 nM.

`O=c1[nH]cc(-c2cc([C@H]3C[C@@H]3c3ccc4ncccc4c3)c3nccn3n2)c(=O)[nH]1` (racemic) [Example 157, 5-(8-((2S,2S)-2-(quinolin-6-yl)cyclopropyl)imidazo[1,2-b]pyridazin-6-yl)pyrimidine-2,4(1H,3H)-dione] came in with an EC50 of 2.81 nM. The compound `O=c1[nH]cc(-c2cc([C@H]3C[C@@H]3c3ccnc(C(F)(F)F)c3)c3nccn3n2)c(=O)[nH]1` (racemic) [Example 160, 5-(8-((2S,2S)-2-(2-(trifluoromethyl)pyridin-4-yl)cyclopropyl)imidazo[1,2-b]pyridazin-6-yl)pyrimidine-2,4(1H,3H)-dione] returned a 50% effective concentration (EC50) of 27.8 nM. Turning to `O=c1[nH]cc(-c2cc([C@H]3C[C@@H]3c3ccncc3F)c3nccn3n2)c(=O)[nH]1` (racemic) [Example 161, 5-(8-((1S,2S)-2-(3-fluoropyridin-4-yl)cyclopropyl)imidazo[1,2-b]pyridazin-6-yl)pyrimidine-2,4(1H,3H)-dione], the EC50 was determined as 11 nM. The value for `O=c1[nH]cc(-c2cc([C@H]3C[C@@H]3c3cnc4ccccc4c3)c3nccn3n2)c(=O)[nH]1` (racemic) [Example 163, 5-(8-((1S,2S)-2-(quinolin-3-yl)cyclopropyl)imidazo[1,2-b]pyridazin-6-yl)pyrimidine-2,4(1H,3H)-dione] was 10.6 nM; that for `O=c1[nH]cc(-c2cc([C@H]3C[C@@H]3c3cncc(F)c3)c3nccn3n2)c(=O)[nH]1` (racemic) [Example 164, 5-(8-((1S,2S)-2-(5-fluoropyridin-3-yl)cyclopropyl)imidazo[1,2-b]pyridazin-6-yl)pyrimidine-2,4(1H,3H)-dione] was 14 nM. In turn, `O=c1[nH]cc(-c2cc([C@H]3C[C@@H]3c3ccc(C(F)(F)F)cc3F)c3nccn3n2)c(=O)[nH]1` (racemic) [Example 165, 5-(8-((1S,2S)-2-(2-fluoro-4-(trifluoromethyl)phenyl)cyclopropyl)imidazo[1,2-b]pyridazin-6-yl)pyrimidine-2,4(1H,3H)-dione] yielded a concentration for a half-maximal effect (EC50) of 38.7 nM. The compound `O=c1[nH]cc(-c2cc([C@H]3C[C@@H]3c3cccc4ccncc34)c3nccn3n2)c(=O)[nH]1` (racemic) [Example 166, 5-(8-((1S,2S)-2-(isoquinolin-8-yl)cyclopropyl)imidazo[1,2-b]pyridazin-6-yl)pyrimidine-2,4(1H,3H)-dione] gave an EC50 of 378 nM. Next, `O=c1[nH]cc(-c2cc([C@H]3C[C@@H]3c3ccnc4ccccc34)c3nccn3n2)c(=O)[nH]1` (racemic) [Example 167, 5-(8-((1S,2S)-2-(quinolin-4-yl)cyclopropyl)imidazo[1,2-b]pyridazin-6-yl)pyrimidine-2,4(1H,3H)-dione]: 152 nM; `O=c1[nH]cc(-c2cc([C@H]3C[C@@H]3c3cccc4cnccc34)c3nccn3n2)c(=O)[nH]1` (racemic) [Example 168, 5-(8-((1S,2S)-2-(isoquinolin-5-yl)cyclopropyl)imidazo[1,2-b]pyridazin-6-yl)pyrimidine-2,4(1H,3H)-dione]: 306 nM. Next, `CCOC(=O)c1cn2nc(-c3c[nH]c(=O)[nH]c3=O)cc([C@H]3C[C@@H]3c3ccc(F)cc3)c2n1` (racemic) [Example 172, ethyl 6-(2,4-dioxo-1,2,3,4-tetrahydropyrimidin-5-yl)-8-((1S,2S)-2-(4-fluorophenyl)cyclopropyl)imidazo[1,2-b]pyridazine-2-carboxylate]: 65.1 nM.
